Paper PMC5698418 (Nature Communications, 2017)

Test system: surface GluA1
Assay: Surface AMPAR (GluA1) imaging along dendrites
Assay type: cell-based, mouse
Details: 16.7 µM, 6 h with BDNF, vs untreated and BDNF alone; for BDNF: BDNF alone vs baseline
Procedure: Our procedure to label surface AMPARs containing the GluA1 subunit was adapted from two reports[14],[61]. Precisely, DIV14 primary cortical neurons cultured on coverslips were rinsed once with room temperature PBS^MC (PBS containing 0.5 mM CaCl2, 1 mM MgCl2, and 4% sucrose). Live cells were then incubated for 30 min at room temperature with GluA1 primary antibody solution (PBS^MC with antibody against the extracellular N-terminus of GluA1 (EMD Millipore Corp, clone RH95, 5.0 µg ml^−1)). Next, cells were rinsed twice with ice-cold PBS^MC followed by fixation with 4% paraformaldehyde + 4% sucrose solution for 15 min at room temperature. After fixation, neurons were washed with regular PBS and then incubated overnight with Map2 primary antibody solution (PBS with 0.125% Triton X-100, 5% normal goat serum, and anti-Map2 antibody) to label dendrites. Next day, coverslips were washed with PBS, incubated with appropriate secondary antibodies for 1 h at room temperature, and finally mounted on glass slides with ProLong Antifade reagent (Invitrogen).
Quantification of surface GluA1 puncta was performed according to the following strategy. First, overlapping digital images of GluA1 and Map2 immunostainings were collected using a Zeiss AxioObserver Z1 inverted microscope and ×63 oil immersion objective. Second, thresholding and segmentation based on the Map2 images was used to remove GluA1 signals outside of dendritic processes. Importantly, the same background/foreground cutoff threshold was used for images of all experimental conditions. Third, the length of dendrites for each image set was measured and recorded. Finally, distinct GluA1 foreground objects along dendrites >5 pixels were counted using the particle analysis tool in ImageJ and presented as the average number of GluA1 puncta per µm of dendrite length for each experimental condition.

O=C(Nc1cccc(Br)c1)c1cccc(S(=O)(=O)N2CCCCCC2)c1 [AK-7]
surface GluA1 puncta per dendrite µm: significant decrease in surface GluA1 levels
